Reference: patent US7250267B2, “Cross-reactive sensors” (priority 2001, dated 2007)

How the values were obtained:
Format in all cases: biochemical
[1] = biological target: T1, Acetylcholine Esterase from Electrophorus electricus (Electrophorus electricus, UniProt O42275); assay: Esterase hydrolysis microtiter plate assay with fluorescein pH indicator, acetylcholine esterase; settings: for hydrolysis reaction slope after three months / initial slope range and standard deviation of hydrolysis reaction: with acetylcholine esterase; for initial slope range and standard deviation of hydrolysis reaction: measured initially
T1 construct: purchased Sigma and Fluka
Experimental: (§1) A fluorescent pH indicator, fluorescein, was added to the reaction mixture to measure the change in acidity resulting from the hydrolysis reaction in a 96-well microtiter plate format. The fluorescence response was monitored over time to give a temporal pH-induced fluorescence pattern. […] Esterases have been used to test ester chirality (Janes et al., Chem. Eur. J, 1998, 4, 2324) and as synthetic tools for efficiently hydrolyzing a variety of esters (Ohno et al., Org. React, 1989, 37, 1). General Procedure for Enzyme-Based Sensor Array:
(§2) First, solutions of desired substrates (certain exemplary substrates are depicted in FIGS. 4 and 5) were made from 100 mM of substrate in CH3CN (or buffer, depending on the solubility of the ester). The analyte concentration was chosen to be at most one-fifth of the Michaelis constant (kM) for the esterases. All solvents and substrates were purchased from Aldrich, Sigma, and Fluka Chemical Companies and used as received.
(§3) The microtiter plate assay provides a rapid and reproducible system to measure the hydrolysis reactions. In the present example, the microtiter plate assay contained the nine esterases in different columns and the ester analytes in the different rows. Each esterase catalyzed hydrolysis reaction was addressed individually to monitor the kinetics by scanning each well independently. After preparation of the desired solutions, to the microtiter plate was first pipetted (using a pipetman) 100 μL of the substrate solution into each well. […] The plate was allowed to shake for 10 seconds before the first reading. The reader reads 15 second intervals while shaking before each read. The plate was monitored for 90 seconds by a Molecular Devices, Spectra Max Gemini, fluorescence microtiter plate reader. The reader scans each row and column of the microtiter plate reading each well individually. Therefore, each enzyme was monitored individually and the enzyme's kinetics were measured at the same point in time. […] The MATLAB program analyzes the individual interactions and separates them into clusters, which can indicate the ability of the sensor to distinguish the analytes.

[2] = test system: Esterase from Bacillus thermoglucosidasius (denoted bacteria-2); assay: Esterase hydrolysis microtiter plate assay with fluorescein pH indicator, bacteria 2 esterase
Experimental: as §1
(§4) First, solutions of desired substrates (certain exemplary substrates are depicted in FIGS. 4 and 5) were made from 100 mM of substrate in CH3CN (or buffer, depending on the solubility of the ester). […]
(§5) The microtiter plate assay provides a rapid and reproducible system to measure the hydrolysis reactions. […] The plate was allowed to shake for 10 seconds before the first reading. The reader reads 15 second intervals while shaking before each read. The plate was monitored for 90 seconds by a Molecular Devices, Spectra Max Gemini, fluorescence microtiter plate reader. The reader scans each row and column of the microtiter plate reading each well individually. Therefore, each enzyme was monitored individually and the enzyme's kinetics were measured at the same point in time. […]

[3] = test system: Esterase from Bacillus sp. (denoted bacteria-1); assay: Esterase hydrolysis microtiter plate assay with fluorescein pH indicator, bacteria esterase 1; settings: for Km / Vmax: Lineweaver-Burk plot, various ester concentrations, bacteria esterase 1
Experimental: as §1, §2
as §3, with “In” for “The microtiter plate assay provides a rapid and reproducible system to measure the hydrolysis reactions. In”
For mixture analysis, concentration runs of four esters, PA, ethyl valerate (EV), methyl nicotinate (MNI) and methyl 6-methyl nicotinate (MMNI) were performed with the nine esterases. The rates of the esterase reaction were plotted on a Lineweaver-Burk plot to determine the Km and Vmax and were used to identify subsequent mixtures of the four esters.

[4] = test system: nine esterases; assay: Esterase hydrolysis microtiter plate assay, nine-esterase array
Experimental: as §1, §4, §5

T1 sequence (O42275 24-633): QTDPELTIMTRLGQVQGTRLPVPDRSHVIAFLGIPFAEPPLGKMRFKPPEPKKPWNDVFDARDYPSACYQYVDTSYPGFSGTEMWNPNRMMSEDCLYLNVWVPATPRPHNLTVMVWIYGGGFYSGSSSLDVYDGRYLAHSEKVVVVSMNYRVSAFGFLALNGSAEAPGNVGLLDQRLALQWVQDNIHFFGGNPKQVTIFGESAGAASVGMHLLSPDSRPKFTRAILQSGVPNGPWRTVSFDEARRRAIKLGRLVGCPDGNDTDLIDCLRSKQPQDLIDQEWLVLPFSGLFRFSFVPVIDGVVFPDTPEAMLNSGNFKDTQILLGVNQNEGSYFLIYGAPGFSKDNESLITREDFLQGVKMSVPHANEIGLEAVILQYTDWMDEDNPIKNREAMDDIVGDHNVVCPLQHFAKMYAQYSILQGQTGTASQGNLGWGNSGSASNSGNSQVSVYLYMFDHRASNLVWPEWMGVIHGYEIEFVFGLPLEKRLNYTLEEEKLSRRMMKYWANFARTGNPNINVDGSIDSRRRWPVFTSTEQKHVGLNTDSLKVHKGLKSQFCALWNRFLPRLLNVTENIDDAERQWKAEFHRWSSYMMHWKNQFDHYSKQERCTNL

## CCCC(=O)OC [MB, methyl butyrate]
[1]
  hydrolysis reaction slope after three months: −1.3×10^2 fluorescence units/time
  initial slope range and standard deviation of hydrolysis reaction: (−1.3±0.01)×10^2 fluorescence units/time

## COC(=O)[C@H](C)N [LM, L-alanine methyl ester]
[2]
  hydrolysis by bacteria 2 esterase: hydrolyzes only LM
[1]
  hydrolysis by acetylcholine esterase: hydrolyzed
[3]
  hydrolysis by bacteria 1 esterase: hydrolyzed

## CC(=O)Oc1ccccc1 [PA, Phenyl acetate]
[4]
  relative rate of hydrolysis among all of the esters: hydrolyzed the fastest
[1]
  hydrolysis reaction slope after three months: −1.5×10^3 fluorescence units/time
  initial slope range and standard deviation of hydrolysis reaction: (−1.4±0.2)×10^2 fluorescence units/time

## COC(=O)c1ccc(C)nc1 [methyl 6-methyl nicotinate, Methyl 6-methyl nicotinate]
[3]
  Km: 2600 µM
  Vmax: 4e-07 M/s

## COC(=O)[C@@H](C)N [DM, D-alanine methyl ester]
[2]
  hydrolysis by bacteria 2 esterase: not DM
[1]
  hydrolysis by acetylcholine esterase: hydrolyzed
[3]
  hydrolysis by bacteria 1 esterase: hydrolyzed

## CCCC(=O)OCC [BA, Ethyl butyrate]
[1]
  hydrolysis reaction slope after three months: −3.2×10^2 fluorescence units/time
  initial slope range and standard deviation of hydrolysis reaction: (−2.9±1.6)×10^3 fluorescence units/time

## CCCCC(=O)OCC [ethyl valerate, Ethyl valerate]
[3]
  Km: 1000 µM
  Vmax: 2e-07 M/s
